Data taken from ChEMBL document CHEMBL4316596, “Antimicrobial Peptides with High Proteolytic Resistance for Combating Gram-Negative Bacteria” (J Med Chem, 2019).

Tested on: Pseudomonas aeruginosa
Test: Antimicrobial activity against Pseudomonas aeruginosa CICC 21630 clinical isolates after 24 hrs by NCCLS-protocol based assay
Type: functional
Conditions: CICC 21630, 24 h

| Substance | MIC95 [µM] |
| --- | --- |
| H-IRPIIRPIIRPIIRPIIRPI-NH2 | > 64 |
| H-IRPIIRPIIRPIIRPIIRPIIRPIIRPIIRPI-NH2 | > 64 |

Tested on: Pseudomonas aeruginosa
Test: Antimicrobial activity against Pseudomonas aeruginosa 26305 clinical isolates after 24 hrs by NCCLS-protocol based assay
Type: functional
Conditions: Pseudomonas aeruginosa, 26305, 24 h

| Substance | MIC95 [µM] |
| --- | --- |
| H-IRPIIRPIIRPIIRPIIRPI-NH2 | > 64 |
| H-IRPIIRPIIRPIIRPIIRPIIRPIIRPIIRPI-NH2 | > 64 |

Tested on: Pseudomonas aeruginosa
Test: Bactericidal activity against Pseudomonas aeruginosa 26305 clinical isolates incubated for 4 hrs followed by culture spread on agar plates and cultured overnight
Type: functional
Conditions: Pseudomonas aeruginosa, 26305, 4 h; read-out: MBC>99.9

| Substance | MBC [µM] |
| --- | --- |
| H-IRPIIRPIIRPIIRPIIRPI-NH2 | > 64 |
| H-IRPIIRPIIRPIIRPIIRPIIRPIIRPIIRPI-NH2 | > 64 |

Tested on: Escherichia coli
Test: Bactericidal activity against Escherichia coli ATCC 25922 incubated for 4 hrs followed by culture spread on agar plates and cultured overnight
Type: functional
Conditions: ATCC 25922, 4 h, read-out: MBC>99.9

| Substance | MBC [µM] |
| --- | --- |
| H-IRPIIRPIIRPIIRPIIRPI-NH2 | 8 |
| H-IRPIIRPIIRPIIRPIIRPIIRPIIRPIIRPI-NH2 | 2 |

Tested on: Escherichia coli
Test: Antimicrobial activity against Escherichia coli 078 after 24 hrs by NCCLS-protocol based assay
Type: functional
Conditions: Escherichia coli, 078, 24 h

| Substance | MIC95 [µM] |
| --- | --- |
| H-IRPIIRPIIRPIIRPIIRPI-NH2 | 8 |
| H-IRPIIRPIIRPIIRPIIRPIIRPIIRPIIRPI-NH2 | 2 |

Tested on: Pseudomonas aeruginosa
Test: Bactericidal activity against Pseudomonas aeruginosa ATCC 27853 incubated for 4 hrs followed by culture spread on agar plates and cultured overnight
Type: functional
Conditions: ATCC 27853, 4 h, read-out: MBC>99.9

| Substance | MBC [µM] |
| --- | --- |
| H-IRPIIRPIIRPIIRPIIRPI-NH2 | 64 |
| H-IRPIIRPIIRPIIRPIIRPIIRPIIRPIIRPI-NH2 | 8 |

Tested on: Escherichia coli
Test: Bactericidal activity against Escherichia coli K88 incubated for 4 hrs followed by culture spread on agar plates and cultured overnight
Type: functional
Conditions: K88, 4 h, read-out: MBC>99.9

| Substance | MBC [µM] |
| --- | --- |
| H-IRPIIRPIIRPIIRPIIRPI-NH2 | 1 |
| H-IRPIIRPIIRPIIRPIIRPIIRPIIRPIIRPI-NH2 | 2 |

Tested on: not listed separately
Test: Antimicrobial activity against Salmonella pullorum C7913 after 24 hrs by NCCLS-protocol based assay
Type: functional, Salmonella enterica subsp. enterica serovar Pullorum
Conditions: Salmonella enterica, C7913, 24 h

| Substance | MIC95 [µM] |
| --- | --- |
| H-IRPIIRPIIRPIIRPIIRPI-NH2 | 8 |
| H-IRPIIRPIIRPIIRPIIRPIIRPIIRPIIRPI-NH2 | 4 |

Tested on: not listed separately
Test: Bactericidal activity against Salmonella pullorum C7913 incubated for 4 hrs followed by culture spread on agar plates and cultured overnight
Type: functional, Salmonella enterica subsp. enterica serovar Pullorum
Conditions: Salmonella enterica, C7913, 4 h; read-out: MBC>99.9

| Substance | MBC [µM] |
| --- | --- |
| H-IRPIIRPIIRPIIRPIIRPI-NH2 | 8 |
| H-IRPIIRPIIRPIIRPIIRPIIRPIIRPIIRPI-NH2 | 4 |

Tested on: Salmonella typhimurium
Test: Antimicrobial activity against Salmonella typhimurium ATCC 14028 after 24 hrs by NCCLS-protocol based assay
Type: functional, Salmonella enterica subsp. enterica serovar Typhimurium
Conditions: Salmonella enterica, ATCC 14028, 24 h

| Substance | MIC95 [µM] |
| --- | --- |
| H-IRPIIRPIIRPIIRPIIRPI-NH2 | 8 |
| H-IRPIIRPIIRPIIRPIIRPIIRPIIRPIIRPI-NH2 | 8 |

Tested on: Pseudomonas aeruginosa
Test: Bactericidal activity against Pseudomonas aeruginosa 25349 clinical isolates incubated for 4 hrs followed by culture spread on agar plates and cultured overnight
Type: functional
Conditions: Pseudomonas aeruginosa, 25349, 4 h; read-out: MBC>99.9

| Substance | MBC [µM] |
| --- | --- |
| H-IRPIIRPIIRPIIRPIIRPI-NH2 | > 64 |
| H-IRPIIRPIIRPIIRPIIRPIIRPIIRPIIRPI-NH2 | > 64 |

Tested on: Klebsiella pneumoniae
Test: Antimicrobial activity against Klebsiella pneumoniae after 24 hrs by NCCLS-protocol based assay
Type: functional
Conditions: not given

| Substance | MIC95 [µM] |
| --- | --- |
| H-IRPIIRPIIRPIIRPIIRPI-NH2 | 8 |
| H-IRPIIRPIIRPIIRPIIRPIIRPIIRPIIRPI-NH2 | 4 |

Tested on: Escherichia coli
Test: Antimicrobial activity against Escherichia coli K99 after 24 hrs by NCCLS-protocol based assay
Type: functional
Conditions: K99, 24 h

| Substance | MIC95 [µM] |
| --- | --- |
| H-IRPIIRPIIRPIIRPIIRPI-NH2 | 4 |
| H-IRPIIRPIIRPIIRPIIRPIIRPIIRPIIRPI-NH2 | 1 |

Tested on: Escherichia coli
Test: Bactericidal activity against Escherichia coli 078 incubated for 4 hrs followed by culture spread on agar plates and cultured overnight
Type: functional
Conditions: Escherichia coli, 078, 4 h; read-out: MBC>99.9

| Substance | MBC [µM] |
| --- | --- |
| H-IRPIIRPIIRPIIRPIIRPI-NH2 | 16 |
| H-IRPIIRPIIRPIIRPIIRPIIRPIIRPIIRPI-NH2 | 2 |

Tested on: Escherichia coli
Test: Antimicrobial activity against Escherichia coli ATCC 25922 after 24 hrs by NCCLS-protocol based assay
Type: functional
Conditions: ATCC 25922, 24 h

| Substance | MIC95 [µM] |
| --- | --- |
| H-IRPIIRPIIRPIIRPIIRPI-NH2 | 8 |
| H-IRPIIRPIIRPIIRPIIRPIIRPIIRPIIRPI-NH2 | 2 |

Tested on: Pseudomonas aeruginosa
Test: Bactericidal activity against Pseudomonas aeruginosa PAO1 incubated for 4 hrs followed by culture spread on agar plates and cultured overnight
Type: functional
Conditions: PAO1, 4 h, read-out: MBC>99.9

| Substance | MBC [µM] |
| --- | --- |
| H-IRPIIRPIIRPIIRPIIRPI-NH2 | 64 |
| H-IRPIIRPIIRPIIRPIIRPIIRPIIRPIIRPI-NH2 | 4 |

Tested on: Salmonella typhimurium
Test: Bactericidal activity against Salmonella typhimurium C7731 incubated for 4 hrs followed by culture spread on agar plates and cultured overnight
Type: functional, Salmonella enterica subsp. enterica serovar Typhimurium
Conditions: Salmonella enterica, C7731, 4 h; read-out: MBC>99.9

| Substance | MBC [µM] |
| --- | --- |
| H-IRPIIRPIIRPIIRPIIRPI-NH2 | 16 |
| H-IRPIIRPIIRPIIRPIIRPIIRPIIRPIIRPI-NH2 | > 64 |

Tested on: Klebsiella pneumoniae
Test: Bactericidal activity against Klebsiella pneumoniae incubated for 4 hrs followed by culture spread on agar plates and cultured overnight
Type: functional
Conditions: read-out: MBC>99.9

| Substance | MBC [µM] |
| --- | --- |
| H-IRPIIRPIIRPIIRPIIRPI-NH2 | 16 |
| H-IRPIIRPIIRPIIRPIIRPIIRPIIRPIIRPI-NH2 | 8 |

Tested on: Salmonella typhimurium
Test: Antimicrobial activity against Salmonella typhimurium C7731 after 24 hrs by NCCLS-protocol based assay
Type: functional, Salmonella enterica subsp. enterica serovar Typhimurium
Conditions: Salmonella enterica, C7731, 24 h

| Substance | MIC95 [µM] |
| --- | --- |
| H-IRPIIRPIIRPIIRPIIRPI-NH2 | 16 |
| H-IRPIIRPIIRPIIRPIIRPIIRPIIRPIIRPI-NH2 | 64 |

Tested on: Pseudomonas aeruginosa
Test: Antimicrobial activity against Pseudomonas aeruginosa PAO1 after 24 hrs by NCCLS-protocol based assay
Type: functional
Conditions: PAO1, 24 h

| Substance | MIC95 [µM] |
| --- | --- |
| H-IRPIIRPIIRPIIRPIIRPI-NH2 | 64 |
| H-IRPIIRPIIRPIIRPIIRPIIRPIIRPIIRPI-NH2 | 4 |

Tested on: Pseudomonas aeruginosa
Test: Bactericidal activity against Pseudomonas aeruginosa CICC 21625 clinical isolates incubated for 4 hrs followed by culture spread on agar plates and cultured overnight
Type: functional
Conditions: CICC 21625, 4 h, read-out: MBC>99.9

| Substance | MBC [µM] |
| --- | --- |
| H-IRPIIRPIIRPIIRPIIRPI-NH2 | > 64 |
| H-IRPIIRPIIRPIIRPIIRPIIRPIIRPIIRPI-NH2 | > 64 |

Tested on: Escherichia coli
Test: Antimicrobial activity against Escherichia coli K88 after 24 hrs by NCCLS-protocol based assay
Type: functional
Conditions: K88, 24 h

| Substance | MIC95 [µM] |
| --- | --- |
| H-IRPIIRPIIRPIIRPIIRPI-NH2 | 1 |
| H-IRPIIRPIIRPIIRPIIRPIIRPIIRPIIRPI-NH2 | 2 |

Tested on: Pseudomonas aeruginosa
Test: Antimicrobial activity against Pseudomonas aeruginosa 25349 clinical isolates after 24 hrs by NCCLS-protocol based assay
Type: functional
Conditions: Pseudomonas aeruginosa, 25349, 24 h

| Substance | MIC95 [µM] |
| --- | --- |
| H-IRPIIRPIIRPIIRPIIRPI-NH2 | > 64 |
| H-IRPIIRPIIRPIIRPIIRPIIRPIIRPIIRPI-NH2 | > 64 |

Tested on: Pseudomonas aeruginosa
Test: Antimicrobial activity against Pseudomonas aeruginosa ATCC 27853 after 24 hrs by NCCLS-protocol based assay
Type: functional
Conditions: ATCC 27853, 24 h

| Substance | MIC95 [µM] |
| --- | --- |
| H-IRPIIRPIIRPIIRPIIRPI-NH2 | 32 |
| H-IRPIIRPIIRPIIRPIIRPIIRPIIRPIIRPI-NH2 | 8 |

Tested on: Pseudomonas aeruginosa
Test: Antimicrobial activity against Pseudomonas aeruginosa CICC 21625 clinical isolates after 24 hrs by NCCLS-protocol based assay
Type: functional
Conditions: CICC 21625, 24 h

| Substance | MIC95 [µM] |
| --- | --- |
| H-IRPIIRPIIRPIIRPIIRPI-NH2 | > 64 |
| H-IRPIIRPIIRPIIRPIIRPIIRPIIRPIIRPI-NH2 | > 64 |

Tested on: Escherichia coli
Test: Bactericidal activity against Escherichia coli UB1005 incubated for 4 hrs followed by culture spread on agar plates and cultured overnight
Type: functional
Conditions: UB1005, 4 h, read-out: MBC>99.9

| Substance | MBC [µM] |
| --- | --- |
| H-IRPIIRPIIRPIIRPIIRPI-NH2 | 8 |
| H-IRPIIRPIIRPIIRPIIRPIIRPIIRPIIRPI-NH2 | 2 |

Tested on: Pseudomonas aeruginosa
Test: Bactericidal activity against Pseudomonas aeruginosa CICC 21630 clinical isolates incubated for 4 hrs followed by culture spread on agar plates and cultured overnight
Type: functional
Conditions: CICC 21630, 4 h, read-out: MBC>99.9

| Substance | MBC [µM] |
| --- | --- |
| H-IRPIIRPIIRPIIRPIIRPI-NH2 | > 64 |
| H-IRPIIRPIIRPIIRPIIRPIIRPIIRPIIRPI-NH2 | > 64 |

Tested on: Escherichia coli
Test: Antimicrobial activity against Escherichia coli UB1005 after 24 hrs by NCCLS-protocol based assay
Type: functional
Conditions: UB1005, 24 h

| Substance | MIC95 [µM] |
| --- | --- |
| H-IRPIIRPIIRPIIRPIIRPI-NH2 | 4 |
| H-IRPIIRPIIRPIIRPIIRPIIRPIIRPIIRPI-NH2 | 2 |

Tested on: Acinetobacter baumannii
Test: Antimicrobial activity against Acinetobacter baumannii after 24 hrs by NCCLS-protocol based assay
Type: functional
Conditions: not given

| Substance | MIC95 [µM] |
| --- | --- |
| H-IRPIIRPIIRPIIRPIIRPI-NH2 | 4 |
| H-IRPIIRPIIRPIIRPIIRPIIRPIIRPIIRPI-NH2 | 2 |

Tested on: Escherichia coli
Test: Bactericidal activity against Escherichia coli K99 incubated for 4 hrs followed by culture spread on agar plates and cultured overnight
Type: functional
Conditions: K99, 4 h, read-out: MBC>99.9

| Substance | MBC [µM] |
| --- | --- |
| H-IRPIIRPIIRPIIRPIIRPI-NH2 | 4 |
| H-IRPIIRPIIRPIIRPIIRPIIRPIIRPIIRPI-NH2 | 2 |

Tested on: Acinetobacter baumannii
Test: Bactericidal activity against Acinetobacter baumannii incubated for 4 hrs followed by culture spread on agar plates and cultured overnight
Type: functional
Conditions: read-out: MBC>99.9

| Substance | MBC [µM] |
| --- | --- |
| H-IRPIIRPIIRPIIRPIIRPI-NH2 | 4 |
| H-IRPIIRPIIRPIIRPIIRPIIRPIIRPIIRPI-NH2 | 4 |

Tested on: Salmonella typhimurium
Test: Bactericidal activity against Salmonella typhimurium ATCC 14028 incubated for 4 hrs followed by culture spread on agar plates and cultured overnight
Type: functional, Salmonella enterica subsp. enterica serovar Typhimurium
Conditions: Salmonella enterica, ATCC 14028, 4 h; read-out: MBC>99.9

| Substance | MBC [µM] |
| --- | --- |
| H-IRPIIRPIIRPIIRPIIRPI-NH2 | 8 |
| H-IRPIIRPIIRPIIRPIIRPIIRPIIRPIIRPI-NH2 | 16 |
